The target in one test is His6-ALO (Anthrolysin O) (Bacillus anthracis, UniProt A0A6L7HHW7). The format is biochemical.
In another test the target is T1, His6-Scap(L1)-FLAG (Cricetulus griseus, UniProt P97260).
T1 sequence (P97260 46-269): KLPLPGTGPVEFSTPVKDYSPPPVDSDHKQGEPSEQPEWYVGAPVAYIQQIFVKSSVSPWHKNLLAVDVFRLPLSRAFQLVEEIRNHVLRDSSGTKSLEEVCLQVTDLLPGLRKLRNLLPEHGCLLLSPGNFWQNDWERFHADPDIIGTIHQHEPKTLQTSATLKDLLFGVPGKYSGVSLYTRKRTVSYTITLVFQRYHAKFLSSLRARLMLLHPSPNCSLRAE
The test is described as follows: competition with [3H]cholesterol. The format is binding. The settings on record: 150 nM [3H]cholesterol, 0.004% NP-40, 0.002% FC-13, 4 °C, 4 h.

The text below walks through data of article PMC10873635 (Proceedings of the National Academy of Sciences of the …, 2024).

His6-ALO (Anthrolysin O), sequence (A0A6L7HHW7 35-512 limits assumed): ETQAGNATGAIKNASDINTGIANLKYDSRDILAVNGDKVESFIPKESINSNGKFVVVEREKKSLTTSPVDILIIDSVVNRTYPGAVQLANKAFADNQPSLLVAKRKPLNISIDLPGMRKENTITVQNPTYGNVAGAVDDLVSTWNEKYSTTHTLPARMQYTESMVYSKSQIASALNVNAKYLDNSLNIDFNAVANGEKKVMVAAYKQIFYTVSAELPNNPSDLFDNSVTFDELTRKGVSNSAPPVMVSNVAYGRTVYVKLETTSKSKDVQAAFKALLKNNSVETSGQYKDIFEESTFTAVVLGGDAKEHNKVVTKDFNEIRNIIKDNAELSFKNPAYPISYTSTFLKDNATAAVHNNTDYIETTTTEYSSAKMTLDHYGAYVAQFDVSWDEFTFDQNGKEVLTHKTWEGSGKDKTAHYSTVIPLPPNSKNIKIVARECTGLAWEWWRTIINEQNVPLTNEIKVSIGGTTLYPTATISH

Regarding `CC[C@H](CC[C@@H](C)[C@H]1CC[C@H]2[C@@H]3CC=C4C[C@@H](O)CC[C@]4(C)[C@H]3CC[C@]12C)C(C)C` [β-sitosterol], on His6-ALO (Anthrolysin O), the “inhibition of hemolysis of rabbit erythrocytes” value (“inhibition” below) is “both Scap and ALO bind desmosterol, 25-fluorocholesterol, and β-sitosterol”. For the same molecule, the “competition with [3H]cholesterol” value on His6-Scap(L1)-FLAG (competitive) is “both Scap and ALO bind desmosterol, 25-fluorocholesterol, and β-sitosterol”.
In the case of `CC(C)=CCC[C@@H](C)[C@H]1CC[C@H]2[C@@H]3CC=C4C[C@@H](O)CC[C@]4(C)[C@H]3CC[C@]12C` [desmosterol], on His6-ALO (Anthrolysin O), the “inhibition” value is “both Scap and ALO bind desmosterol, 25-fluorocholesterol, and β-sitosterol”. The “competition with [3H]cholesterol” value at His6-Scap(L1)-FLAG (competitive) was “both Scap and ALO bind desmosterol, 25-fluorocholesterol, and β-sitosterol”.
On to `C[C@H](CCCC(C)(C)F)[C@H]1CC[C@H]2[C@@H]3CC=C4C[C@@H](O)CC[C@]4(C)[C@H]3CC[C@]12C` [25-fluorocholesterol], for which the “inhibition” value against His6-ALO (Anthrolysin O) is “both Scap and ALO bind desmosterol, 25-fluorocholesterol, and β-sitosterol”. Besides, the “competition with [3H]cholesterol” value at His6-Scap(L1)-FLAG (competitive) was “both Scap and ALO bind desmosterol, 25-fluorocholesterol, and β-sitosterol”.
Consider `CCOC(=O)c1ccc(NC(=O)Nc2ccc(-c3noc(C4CCC4)n3)cc2)cc1` [UT-59, ethyl 4-({[4-(5-cyclobutyl-1,2,4-oxadiazol-3-yl)anilino]carbonyl}amino) benzoate], for which the “competition with [3H]cholesterol” value at His6-Scap(L1)-FLAG (competitive, cholesterol site) was “UT-59 competed with [^3H]cholesterol for binding to His6-Scap(L1)-FLAG to a similar degree as unlabeled cholesterol”.
As for `CC(C)CCC[C@@H](C)[C@H]1CC[C@H]2[C@@H]3CC[C@H]4C[C@@H](O)CC[C@]4(C)[C@H]3CC[C@]12C` [dihydrocholesterol], the “competition with [3H]cholesterol” value at His6-Scap(L1)-FLAG (competitive) is given as “as well as dihydrocholesterol, where the double bond in the steroid nucleus is reduced”.
Turning to `CC(C)CCC[C@@H](C)[C@H]1CC[C@H]2[C@@H]3CC=C4C[C@@H](O)CC[C@]4(C)[C@H]3CC[C@]12C` [cholesterol], the “inhibition” value against His6-ALO (Anthrolysin O) was “the sterol occupied the binding pocket, preventing ALO from binding to the membrane and inhibiting hemolysis”. Further, on His6-Scap(L1)-FLAG (also labelled compound), the “competition with [3H]cholesterol” value is “As expected, both Scap and ALO bind cholesterol”.
